“And” between values parts separate entries of the source, which are not always exact repeats. Identical values can stand only once. Toxic doses and inconclusive results are not listed.
System: L1210 leukemia ip in BDF1 mice, survival T/C
Assay: NCI In Vivo Anticancer Drug Screen. Data for tumor model L1210 Leukemia (intraperitoneal) in B6D2F1 (BDF1) mice
Conditions: higher = longer survival
Procedure, shortened: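 Tumor was transplanted into mice, which were then dosed with test compound or vehicle alone. Survival was recorded for each group, and the treated figure was expressed relative to the control figure.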

In the case of N#[N+]c1cnc([O-])[nH]c1=O, the T/C (endpoint: mean survival time, dose: 0.31 mg/kg/injection, schedule: Q#A X Z (ip), vehicle: methylcellulose (MC)) is reported as 103 % of control, the T/C (endpoint: mean survival time, dose: 0.6 mg/kg/injection, schedule: Q01DX Z (im), vehicle: saline) is reported as 102 % of control and the T/C (endpoint: mean survival time, dose: 0.6 mg/kg/injection, schedule: Q01DX Z (ip), vehicle: saline) is reported as 104 % of control. The T/C (endpoint: mean survival time, dose: 0.62 mg/kg/injection, schedule: Q#A X Z (ip), vehicle: methylcellulose (MC)) was 108 % of control, the T/C (endpoint: mean survival time, dose: 1.0 mg/kg/injection, schedule: Q01DX009 (ip), vehicle: saline) was 119 % of control and the T/C (endpoint: mean survival time, dose: 1.2 mg/kg/injection, schedule: Q01DX Z (ip), vehicle: saline) was 120 % of control. The T/C (endpoint: mean survival time, dose: 1.75 mg/kg/injection, schedule: Q01DX Z (ip), vehicle: carboxymethylcellulose (CMC)) was 115 % of control, the T/C (endpoint: mean survival time, dose: 2.0 mg/kg/injection, schedule: Q01DX009 (sc), vehicle: carboxymethylcellulose (CMC)) was 103 % of control and the T/C (endpoint: mean survival time, dose: 2.5 mg/kg/injection, schedule: Q01DX006 (iv), vehicle: saline) was 110 % of control. The T/C (endpoint: mean survival time, dose: 2.5 mg/kg/injection, schedule: Q01DX010 (ip), vehicle: saline) was 107 % of control, the T/C (endpoint: mean survival time, dose: 2.5 mg/kg/injection, schedule: Q01DX Z (sc), vehicle: steriod suspending solution) was 112 % of control and the T/C (endpoint: mean survival time, dose: 3.75 mg/kg/injection, schedule: Q03DX Z (ip), vehicle: methylcellulose (MC)) was 123 % of control. For the same molecule, the T/C (endpoint: mean survival time, dose: 4.0 mg/kg/injection, schedule: Q01DX001 (sc), vehicle: carboxymethylcellulose (CMC)) was 100 % of control, the T/C (endpoint: mean survival time, dose: 4.0 mg/kg/injection, schedule: Q01DX009 (sc), vehicle: carboxymethylcellulose (CMC)) was 105 % of control and the T/C (endpoint: mean survival time, dose: 4.0 mg/kg/injection, schedule: Q## X008 (ip), vehicle: carboxymethylcellulose (CMC)) was 120 % of control. The T/C (endpoint: mean survival time, dose: 4.0 mg/kg/injection, schedule: Q## X016 (ip), vehicle: carboxymethylcellulose (CMC)) was 119 % of control, the T/C (endpoint: mean survival time, dose: 4.0 mg/kg/injection, schedule: Q## X024 (ip), vehicle: carboxymethylcellulose (CMC)) was 118 % of control and the T/C (endpoint: mean survival time, dose: 5.0 mg/kg/injection, schedule: Q01DX006 (iv), vehicle: saline) was 115 % of control. For the same molecule, the T/C (endpoint: mean survival time, dose: 5.0 mg/kg/injection, schedule: Q01DX Z (ip), vehicle: saline) was 113 % of control and 118 % of control, the T/C (endpoint: mean survival time, dose: 5.0 mg/kg/injection, schedule: Q04DX003 (ip), vehicle: Klucel (hydroxypropylcellulose) (HPC)) was 124 % of control and the T/C (endpoint: mean survival time, dose: 5.0 mg/kg/injection, schedule: Q04DX003 (ip), vehicle: saline) was 104 % of control and 123 % of control. The T/C (endpoint: mean survival time, dose: 8.0 mg/kg/injection, schedule: Q01DX001 (sc), vehicle: carboxymethylcellulose (CMC)) was 103 % of control, the T/C (endpoint: mean survival time, dose: 8.0 mg/kg/injection, schedule: Q01DX009 (ip), vehicle: carboxymethylcellulose (CMC)) was 165 % of control and the T/C (endpoint: mean survival time, dose: 8.0 mg/kg/injection, schedule: Q01DX009 (ip), vehicle: saline) was 121 % of control. The T/C (endpoint: mean survival time, dose: 8.0 mg/kg/injection, schedule: Q01DX009 (sc), vehicle: carboxymethylcellulose (CMC)) was 107 % of control, the T/C (endpoint: mean survival time, dose: 8.0 mg/kg/injection, schedule: Q## X016 (ip), vehicle: carboxymethylcellulose (CMC)) was 120 % of control and the T/C (endpoint: mean survival time, dose: 8.0 mg/kg/injection, schedule: Q## X024 (ip), vehicle: carboxymethylcellulose (CMC)) was 120 % of control. For the same molecule, the T/C (endpoint: mean survival time, dose: 8.75 mg/kg/injection, schedule: Q07DX Z (ip), vehicle: methylcellulose (MC)) was 112 % of control, the T/C (endpoint: mean survival time, dose: 9.49 mg/kg/injection, schedule: Q01DX Z (oral), vehicle: carboxymethylcellulose (CMC)) was 98 % of control and the T/C (endpoint: mean survival time, dose: 10.0 mg/kg/injection, schedule: Q01DX005 (ip), vehicle: Klucel (hydroxypropylcellulose) (HPC)) was 157 % of control. For the same molecule, the T/C (endpoint: mean survival time, dose: 10.0 mg/kg/injection, schedule: Q01DX006 (iv), vehicle: saline) was 106 % of control and 108 % of control, the T/C (endpoint: mean survival time, dose: 10.0 mg/kg/injection, schedule: Q01DX010 (ip), vehicle: saline) was 155 % of control and the T/C (endpoint: mean survival time, dose: 10.0 mg/kg/injection, schedule: Q01DX Z (im), vehicle: saline) was 118 % of control. The T/C (endpoint: mean survival time, dose: 10.0 mg/kg/injection, schedule: Q01DX Z (oral), vehicle: saline) was 106 % of control, the T/C (endpoint: mean survival time, dose: 10.0 mg/kg/injection, schedule: Q04DX003 (ip), vehicle: Klucel (hydroxypropylcellulose) (HPC)) was 124 % of control and the T/C (endpoint: mean survival time, dose: 10.0 mg/kg/injection, schedule: Q04DX003 (ip), vehicle: saline) was 114 % of control. The T/C (endpoint: mean survival time, dose: 14.2 mg/kg/injection, schedule: Q01DX Z (oral), vehicle: carboxymethylcellulose (CMC)) was 101 % of control, the T/C (endpoint: mean survival time, dose: 15.0 mg/kg/injection, schedule: Q01DX001 (ip), vehicle: saline) was 122 % of control and 91 % of control and the T/C (endpoint: mean survival time, dose: 15.0 mg/kg/injection, schedule: Q03DX Z (ip), vehicle: methylcellulose (MC)) was 152 % of control. For the same molecule, the T/C (endpoint: mean survival time, dose: 16.0 mg/kg/injection, schedule: Q01DX001 (sc), vehicle: carboxymethylcellulose (CMC)) was 101 % of control, the T/C (endpoint: mean survival time, dose: 16.0 mg/kg/injection, schedule: Q01DX009 (sc), vehicle: carboxymethylcellulose (CMC)) was 124 % of control and the T/C (endpoint: mean survival time, dose: 16.0 mg/kg/injection, schedule: Q## X024 (ip), vehicle: carboxymethylcellulose (CMC)) was 115 % of control. The T/C (endpoint: mean survival time, dose: 17.5 mg/kg/injection, schedule: Q07DX Z (ip), vehicle: methylcellulose (MC)) was 124 % of control, the T/C (endpoint: mean survival time, dose: 20.0 mg/kg/injection, schedule: Q01DX006 (iv), vehicle: saline) was 102 % of control and 120 % of control and the T/C (endpoint: mean survival time, dose: 20.0 mg/kg/injection, schedule: Q01DX Z (oral), vehicle: saline) was 115 % of control. The T/C (endpoint: mean survival time, dose: 20.0 mg/kg/injection, schedule: Q04DX003 (ip), vehicle: saline) was 116 % of control and 119 % of control, the T/C (endpoint: mean survival time, dose: 21.3 mg/kg/injection, schedule: Q01DX Z (oral), vehicle: carboxymethylcellulose (CMC)) was 97 % of control and the T/C (endpoint: mean survival time, dose: 29.0 mg/kg/injection, schedule: Q01DX001 (ip), vehicle: alkali diluted with saline) was 153 % of control. For the same molecule, the T/C (endpoint: mean survival time, dose: 32.0 mg/kg/injection, schedule: Q01DX Z (oral), vehicle: carboxymethylcellulose (CMC)) was 104 % of control, the T/C (endpoint: mean survival time, dose: 32.0 mg/kg/injection, schedule: Q01DX Z (oral), vehicle: methylcellulose (MC)) was 95 % of control and the T/C (endpoint: mean survival time, dose: 40.0 mg/kg/injection, schedule: Q01DX006 (iv), vehicle: saline) was 113 % of control. For the same molecule, the T/C (endpoint: mean survival time, dose: 40.0 mg/kg/injection, schedule: Q01DX009 (oral), vehicle: carboxymethylcellulose (CMC)) was 104 % of control, the T/C (endpoint: mean survival time, dose: 40.0 mg/kg/injection, schedule: Q01DX Z (oral), vehicle: saline) was 107 % of control and 116 % of control and the T/C (endpoint: mean survival time, dose: 80.0 mg/kg/injection, schedule: Q01DX009 (oral), vehicle: carboxymethylcellulose (CMC)) was 109 % of control. The T/C (endpoint: mean survival time, dose: 80.0 mg/kg/injection, schedule: Q01DX Z (oral), vehicle: saline) was 106 % of control, the T/C (endpoint: mean survival time, dose: 160.0 mg/kg/injection, schedule: Q01DX001 (oral), vehicle: carboxymethylcellulose (CMC)) was 104 % of control and the T/C (endpoint: mean survival time, dose: 240.0 mg/kg/injection, schedule: Q01DX001 (oral), vehicle: carboxymethylcellulose (CMC)) was 102 % of control. For the same molecule, the T/C (endpoint: median survival time, dose: 5.0 mg/kg/injection, schedule: Q01DX009 (ip), vehicle: saline) was 164 % of control and the T/C (endpoint: median survival time, dose: 10.0 mg/kg/injection, schedule: Q01DX009 (ip), vehicle: saline) was 172 % of control and 200 % of control.
